Measurements reported in the supplement of paper PMC13380429.

Columns and labels:
Settings in all cases: 72 h
Vero E6 [1] = test: cell viability relative to DMSO; higher = less toxic
U2OS [2] = test: as above
HepG2 [3] = test: as above
Calu-3 [4] = test: as above
Caco-2 [5] = test: as above
Vero E6 [6] = test: relative viability EC50 (midpoint between 100% and the lowest measured viability); higher = less toxic
HepG2 [7] = test: as above
Calu-3 [8] = test: as above
Caco-2 [9] = test: as above
Vero E6 [10] = test: drug sensitivity score (DSS) for viability; higher = more toxic; extreme values may be limits of the assay
U2OS [11] = test: as above
HepG2 [12] = test: as above
Calu-3 [13] = test: as above
Caco-2 [14] = test: as above
U2OS [15] = test: relative viability EC50 (midpoint between 100% and the lowest measured viability); higher = less toxic

SMILES | cell viability (Vero E6 [1]; 1 nM) [%] | cell viability (Vero E6 [1]; 10 nM) [%] | cell viability (Vero E6 [1]; 100 nM) [%] | cell viability (Vero E6 [1]; 1000 nM) [%] | cell viability (Vero E6 [1]; 10000 nM) [%] | cell viability (U2OS [2]; 1 nM) [%] | cell viability (U2OS [2]; 10 nM) [%] | cell viability (U2OS [2]; 100 nM) [%] | cell viability (U2OS [2]; 1000 nM) [%] | cell viability (U2OS [2]; 10000 nM) [%] | cell viability (HepG2 [3]; 1 nM) [%] | cell viability (HepG2 [3]; 10 nM) [%] | cell viability (HepG2 [3]; 100 nM) [%] | cell viability (HepG2 [3]; 1000 nM) [%] | cell viability (HepG2 [3]; 10000 nM) [%] | cell viability (Calu-3 [4]; 1 nM) [%] | cell viability (Calu-3 [4]; 10 nM) [%] | cell viability (Calu-3 [4]; 100 nM) [%] | cell viability (Calu-3 [4]; 1000 nM) [%] | cell viability (Calu-3 [4]; 10000 nM) [%] | cell viability (Caco-2 [5]; 1 nM) [%] | cell viability (Caco-2 [5]; 10 nM) [%] | cell viability (Caco-2 [5]; 100 nM) [%] | cell viability (Caco-2 [5]; 1000 nM) [%] | cell viability (Caco-2 [5]; 10000 nM) [%] | relative viability EC50 (Vero E6 [6]) [µM] | relative viability EC50 (HepG2 [7]) [µM] | relative viability EC50 (Calu-3 [8]) [µM] | relative viability EC50 (Caco-2 [9]) [µM] | drug sensitivity score (Vero E6 [10]) | drug sensitivity score (U2OS [11]) | drug sensitivity score (HepG2 [12]) | drug sensitivity score (Calu-3 [13]) | drug sensitivity score (Caco-2 [14]) | relative viability EC50 (U2OS [15]) [µM]
CC[C@H](C)C(=O)O[C@H]1C[C@@H](C)C=C2C=C[C@H](C)[C@H](CC[C@@H]3C[C@@H](O)CC(=O)O3)[C@H]21 [lovastatin] | 100 | 100 | 96.2 | 102 | 88.1 | 94.1 | 108 | 96.2 | 96.6 | 55.4 | 91.2 | 109 | 96.4 | 92.3 | 88.7 | 87.8 | 106 | 96.3 | 111 | 81.6 | 92.2 | 85.7 | 84.2 | 106 | 101 | > 10 | > 10 | > 10 | > 10 | 0 | 2.8 | 0.1 | 0.2 | 0 | 
CN1CCN(c2ccc(C(=O)Nc3n[nH]c4ccc(Cc5cc(F)cc(F)c5)cc34)c(NC3CCOCC3)c2)CC1 [entrectinib] | 98.5 | 101 | 99.4 | 80.5 | 0.3 |  |  |  |  |  | 104 | 100 | 102 | 71.9 | 0.1 | 96.7 | 95.8 | 98.5 | 76.9 | 1.7 | 98.7 | 97 | 100 | 81.2 | 5.3 | 1.76 | 1.45 | 1.6 | 1.74 | 8.7 |  | 9.7 | 9 | 8.3 | 
Cc1c(N(C)CS(=O)(=O)O)c(=O)n(-c2ccccc2)n1C [metamizole] | 97.5 | 97.1 | 95.6 | 102 | 101 |  |  |  |  |  | 99.9 | 109 | 100 | 91.6 | 102 | 106 | 90.6 | 102 | 95.7 | 91.1 | 98.5 | 107 | 101 | 104 | 104 | > 10 | > 10 | > 10 | > 10 | 0 |  | 0 | 0 | 0 | 
Nc1nc2[nH]cc(CCc3ccc(C(=O)N[C@@H](CCC(=O)O)C(=O)O)cc3)c2c(=O)[nH]1 [pemetrexed] | 85.2 | 99.1 | 91.6 | 70.9 | 45 | 103 | 95.5 | 107 | 100 | 68 | 85.4 | 100 | 97.3 | 39.4 | 20.1 | 108 | 91.9 | 86.6 | 83.3 | 76 | 105 | 86.8 | 87.4 | 96.5 | 79.3 | 0.768 | 0.558 | > 10 | > 10 | 6.5 | 1.4 | 11.8 | 3.7 | 1.2 | 
CCOc1ccc(NC(=S)N2CCC(C(O)(c3ccccc3)c3ccccc3)CC2)cc1 [SF-11] | 101 | 99.9 | 98.4 | 99.8 | 102 | 101 | 96.6 | 98.4 | 98.2 | 100 | 99.5 | 100 | 103 | 109 | 91.7 | 100 | 107 | 96.7 | 104 | 96.5 |  |  |  |  |  | > 10 | > 10 | > 10 |  | 0 | 0 | 0 | 0 |  | > 10
Cc1sc2c(c1C)C(c1ccc(Cl)cc1)=N[C@@H](CC(=O)Nc1ccc(OCCOCCOCCOCCNc3cccc4c3C(=O)N(C3CCC(=O)NC3=O)C4=O)cc1)c1nnc(C)n1-2 (some centres not stated) [ARV-825] | 94.6 | 105 | 91 | 76.3 | 11 | 95.4 | 93.6 | 96.9 | 51 | 31.7 | 95.4 | 103 | 89.9 | 40.5 | 25.2 | 95.1 | 91.4 | 111 | 72 | 62.9 | 91.4 | 92.6 | 90.1 | 44 | 51.7 | 1.55 | 0.381 |  | 0.184 | 8.3 | 9.9 | 12.3 | 5 | 12 | 0.577
Cc1cc(C)c(NC(=O)N(Cc2ccc3c(c2)Cc2ccccc2-3)C2CCCCCC2)c(C)c1 [YM-750] | 96.9 | 98.1 | 91.9 | 101 | 88.3 | 97.8 | 99.8 | 94.8 | 94.6 | 79.9 | 96.2 | 93.5 | 103 | 92.9 | 59.8 | 94.1 | 95.3 | 84.9 | 85.6 | 83.3 | 98.6 | 100 | 96.6 | 100 | 55 | > 10 |  | > 10 |  | 0 | 1 | 3.2 | 2.4 | 2.3 | > 10
Oc1ccc2ccccc2c1Cc1c(O)ccc2ccccc12 [ST-1859] | 98.3 | 104 | 102 | 93 | 95.2 | 95.1 | 101 | 98.2 | 104 | 96.5 | 103 | 102 | 93.9 | 90.7 | 86.9 | 87.4 | 94.8 | 91.9 | 93.9 | 64.6 | 90.3 | 92.6 | 97.5 | 101 | 75.8 | > 10 | > 10 |  | > 10 | 0 | 0 | 0.5 | 2.7 | 0.8 | > 10
O=C(Nc1cc(-c2ccccc2)nn1-c1ccccc1F)c1ccc([N+](=O)[O-])cc1 [VU1545] | 111 | 105 | 107 | 108 | 99.9 |  |  |  |  |  | 107 | 83.9 | 104 | 89.6 | 97.5 | 101 | 97.7 | 92.9 | 98 | 87.5 |  |  |  |  |  | > 10 | > 10 | > 10 |  | 0 |  | 0 | 0 |  | 
O=C1OCCN1/N=C/c1ccc([N+](=O)[O-])o1 [furazolidone] | 106 | 97.8 | 105 | 98.2 | 97.4 | 101 | 93.2 | 97.1 | 96.6 | 96.5 | 99.3 | 104 | 102 | 111 | 70.5 | 111 | 97.6 | 100 | 101 | 110 | 101 | 90.2 | 95.6 | 93.6 | 86.1 | > 10 |  | > 10 | > 10 | 0 | 0 | 0.8 | 0 | 0.1 | > 10
Fc1ccc(C(OCCN2CCN(C/C=C/c3ccccc3)CC2)c2ccc(F)cc2)cc1 | 99.6 | 106 | 101 | 96 | 86.7 | 103 | 100 | 103 | 98.4 | 94.8 | 87.6 | 101 | 101 | 96.2 | 72.1 | 97.8 | 106 | 110 | 99.7 | 95.3 | 102 | 100 | 104 | 94.2 | 83.5 | > 10 |  | > 10 | > 10 | 0.4 | 0 | 1.8 | 0 | 0.9 | > 10
C[C@H](CCC(=O)O)[C@H]1CC[C@H]2[C@@H]3CC[C@@H]4C[C@H](O)CC[C@]4(C)[C@H]3CC[C@]12C [lithocholic-acid] | 102 | 101 | 102 | 101 | 98.7 |  |  |  |  |  | 102 | 96.4 | 108 | 90.2 | 111 | 98.9 | 91.2 | 98.2 | 93.3 | 105 | 106 | 96.9 | 101 | 98 | 99 | > 10 | > 10 | > 10 | > 10 | 0 |  | 0 | 0 | 0 | 
O=C1C=CC(=O)C2=C1C1c3ccccc3C2c2ccccc21 [INCA-6] | 93.3 | 96.7 | 87 | 96.1 | 105 | 98 | 93.7 | 98.2 | 97.5 | 88.2 | 102 | 112 | 96.8 | 106 | 68.5 | 98.2 | 99.3 | 96.7 | 95.7 | 104 | 97.5 | 93.5 | 94.5 | 96.6 | 90.1 | > 10 |  | > 10 | > 10 | 0 | 0 | 1.1 | 0 | 0 | > 10
CC[C@H]1OC(=O)[C@@](C)(F)C(=O)[C@H](C)[C@@H](O[C@@H]2O[C@H](C)C[C@H](N(C)C)[C@H]2O)[C@](C)(OC)C[C@@H](C)C(=O)[C@H](C)[C@H]2N(CCCCn3cc(-c4cccc(N)c4)nn3)C(=O)O[C@]12C [solithromycin] | 98.2 | 100 | 97.2 | 104 | 93.4 | 97.6 | 95.5 | 94.6 | 103 | 91 | 102 | 102 | 87.4 | 94.2 | 58.7 | 104 | 100 | 98.4 | 97.2 | 89.8 | 105 | 90.6 | 101 | 107 | 93.3 | > 10 |  | > 10 | > 10 | 0 | 0 | 3.1 | 0 | 0 | > 10
Nc1nnc(Sc2ncc([N+](=O)[O-])s2)s1 [SU3327] | 101 | 101 | 98.8 | 95.6 | 1.4 | 103 | 92.7 | 98 | 93.4 | 0.1 | 100 | 104 | 96.1 | 76.2 | 0 | 99.7 | 104 | 99.2 | 100 | 62.7 | 105 | 104 | 103 | 94.2 | 8.8 | 2.83 | 1.59 |  | 2.66 | 6.1 | 6.5 | 9.2 | 1.8 | 5.9 | 2.64
